Measured values as given in patent US20210364534A1, “METHODS OF USING HISTATIN FOR DIAGNOSING AND TREATING A DRY EYE DISEASE OR OTHER OCULAR DISEASES” (THE BOARD OF TRUSTEES OF THE UNIVERSITY OF ILLINOIS, priority 2018, published 2021).
Marks after values point to notes of the source that are not given here. Non-standard residues stand in square brackets, D forms with d. No end group written: not given here. pS = N[C@@H](COP(=O)(O)O)C(=O)O

Legend:
IL6 = IL6 expression induced by BAK application to HCE cells; assay type: cell-based, Human; conditions: BAK-treated HCE cells, histatin co-treatment
IL8 = IL8 expression induced by BAK application to HCE cells; assay type: cell-based, Human; conditions: BAK-treated HCE cells, histatin co-treatment
[1] = system: Human corneal epithelial (HCE) cells; test: WST-1 cell viability of HCE cells exposed to benzalkonium chloride (BAK); assay type: cell-based; conditions: BAK-treated HCE cells co-treated with histatin; FIG. 5
Method: Experiments were performed in triplicate. *<0.05, **<0.01. Bar represents SEM.
To determine whether histatins could improve symptoms of dry eye disease, cell viability assays were carried out in the presence of the toxic preservative benzalkonium chloride (BAK)(Yang, et al. (2017) Int. J. Mol. Sci. 18(3):509). Human corneal epithelial (HCE) cells were cultivated under standard conditions and viability was assessed using WST-1 reagent, a tetrazolium salt that is reduced to a red formazan dye by the mitochondrial dehydrogenases of metabolically active cells (Bartok, et al. (2015) EXCLI J. 14:123-132).

[2] = system: dry eye disease murine model (BAK exposure); test: Murine model of dry eye disease (benzalkonium chloride exposure), NEI score; assay type: in vivo; conditions: twice a day topical 80 μM, by 7 days, versus vehicle control (BSS); FIG. 6
Method: Results are based upon the National Eye Institute/Industry (NEI) grading scale (Lemp (1995) CLAO J. 21:221-232) in animals treated with H5 or Balanced Salt Solution (BSS). All experiments were performed in triplicate. *<0.05, **<0.01. Bar represents SEM.

TNFα = TNFα expression induced by BAK application to HCE cells; assay type: cell-based, Human; conditions: BAK-treated HCE cells, histatin co-treatment
human corneal epithelia = conditions: Shah, et al. (2017) PLoS One 12(5):e0178030; cited from earlier work

Row | Substance | Decrease in cytokine expression IL6 mRNA (IL6) | Decrease in cytokine expression IL6 protein (IL6) | Decrease in cytokine expression IL8 mRNA (IL8) | HCE viability (WST-1) [1] | standardized dry eye disease score (NEI score) [2] | Decrease in cytokine expression TNFα protein (TNFα) | migration of human corneal epithelia (human corneal epithelia)
1 | Histatin 5 (DSHAKRHHGYKRKFHEKHHSHRGY) [Histatin H5] | 45%* | 45% | 46%* | improved | reduced standardized dry eye disease score (NEI score) in a statistically significant manner | 32%** | 
2 | Histatin-1 (D[pS]HEKRHHGYRRKFHEKHHSHREFPFYGDYGSNYLYDN) [Histatin H1] | 82%** | 48%* | 86%** | improved |  | 12% | promote migration
